Data reported in ChEMBL document CHEMBL1124673, “A multisubstrate adduct inhibitor of a purine biosynthetic enzyme with a picomolar dissociation constant” (J Med Chem, 1989).
pKd, pKi: −log10 of the molar value.

Assays:
[1] = molecular target: T1, Trifunctional purine biosynthetic protein adenosine-3 (Mus musculus, UniProt Q64737); test: Thermodynamic dissociation constant (KD) was measured upon binding to GAR TFase in mice
T1 sequence (Q64737 whole entry): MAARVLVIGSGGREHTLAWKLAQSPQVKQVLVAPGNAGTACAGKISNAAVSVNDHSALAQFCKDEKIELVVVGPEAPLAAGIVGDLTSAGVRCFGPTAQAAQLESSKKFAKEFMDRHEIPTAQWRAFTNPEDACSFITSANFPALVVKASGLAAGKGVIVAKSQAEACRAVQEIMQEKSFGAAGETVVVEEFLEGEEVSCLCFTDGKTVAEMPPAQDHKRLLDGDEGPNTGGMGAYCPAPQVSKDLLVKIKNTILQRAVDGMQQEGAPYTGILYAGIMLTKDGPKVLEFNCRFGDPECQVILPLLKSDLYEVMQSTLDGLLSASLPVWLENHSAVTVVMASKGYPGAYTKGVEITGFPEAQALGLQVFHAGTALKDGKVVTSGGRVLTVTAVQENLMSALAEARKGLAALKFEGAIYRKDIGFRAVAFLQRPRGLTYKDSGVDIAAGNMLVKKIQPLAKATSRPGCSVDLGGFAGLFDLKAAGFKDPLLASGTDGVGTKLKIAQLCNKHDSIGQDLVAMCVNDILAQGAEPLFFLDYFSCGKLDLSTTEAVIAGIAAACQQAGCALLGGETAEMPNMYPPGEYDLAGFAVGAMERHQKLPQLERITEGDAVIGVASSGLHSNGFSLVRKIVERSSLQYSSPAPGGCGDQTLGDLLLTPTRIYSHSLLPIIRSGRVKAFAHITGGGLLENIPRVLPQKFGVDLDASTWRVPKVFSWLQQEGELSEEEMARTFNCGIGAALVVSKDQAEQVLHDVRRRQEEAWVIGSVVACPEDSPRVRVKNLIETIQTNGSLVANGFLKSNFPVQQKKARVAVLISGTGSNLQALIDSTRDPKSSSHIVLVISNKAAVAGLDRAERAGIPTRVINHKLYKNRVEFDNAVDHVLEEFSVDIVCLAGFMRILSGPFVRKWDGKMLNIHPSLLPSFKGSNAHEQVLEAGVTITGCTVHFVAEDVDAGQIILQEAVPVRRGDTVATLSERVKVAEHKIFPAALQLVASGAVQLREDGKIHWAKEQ

[2] = molecular target: T1, Trifunctional purine biosynthetic protein adenosine-3; test: Compound was tested for inhibition constant against GAR TFase in mice

Q: `Nc1nc2ccc(CN(C(=O)CSCC(=O)NC3O[C@H](COP(=O)(O)O)[C@@H](O)[C@H]3O)c3ccc(C(=O)N[C@H](CCC(=O)O)C(=O)O)cc3)cc2c(=O)[nH]1` (some centres not stated) was tested. Which pKd [1] did it give?
A: 9.60

Q: And the pKi [2]?
A: < 7.00
